Results taken from patent US20230416202A1, “Small Molecule Compounds and Compositions” (Telo Therapeutics, Inc., priority 2020, published 2023).

Experiments:
[1] = system: Mutant TERT; test: HepG2 hTERT mRNA assay (qPCR); type: cell-based, human; conditions: Homo sapiens; HepG2 cells (mutated TERT), 48 hours, TERT mRNA via qPCR
Experimental: (§1) HepG2 cells (hepatocyte carcinoma (HCC) cells; with mutated TERT) or HEK293T cells (with wild type (wt) TERT) were seeded at 4,000 cells/well in 96-well plates. The following day, test compounds were added to cells for at concentrations of 25 uM, 12.5 uM, 6.25 uM, 3.125 uM, 1.563 uM, 0.781 uM, 0.391 uM, 0.195 uM, 0.098 uM or vehicle control (0.1% DMSO). Each condition was tested in three replicate wells. 48 hours post drug addition, the cells were harvested for RNA using the 96-Magmax RNA Isolation kit (Cat. No. AM1830). RNA was converted to cDNA using the Superscript III First strand cDNA synthesis kit (Cat. No. 18080051). RNA and cDNA concentration and quality were determined using the NanoQuant nucleic acid quantification method. 500 ng cDNA from each sample was used to detect TERT mRNA via qPCR. GUSB was also measured as an internal control and fold change to vehicle control was determined using the delta CT method.

[2] = system: wt TERT; test: HEK293T hTERT mRNA assay (qPCR); type: cell-based, human; conditions: HEK293 cells (wt TERT), 48 hours, class symbols
Experimental: as §1

[3] = system: GBM39 orthotopic xenograft; test: GBM39 orthotopic xenograft, tumor BLI; type: in vivo, mice; conditions: for tumor BLI change: 5 days
Experimental: (§2) In this study, Compound 101 was dosed twice daily (BID) via oral gavage to mice with GBM39 orthotopic xenograft (GBM39 cells). Tumor size was measured via Bioluminescence imaging (BLI). BLI readings were taken on treatment day 1 and day 5. Tumors were also harvested for downstream RNA analysis.
(§3) For each dose group (N=6), the following steps were performed. Briefly, athymic nu/nu mice were injected intracranially with patient-derived Glioblastoma cells. Animals began treatment once tumor BLI levels reach the range of 1×10^8-5×10^8. A dosing solution of Compound 101 (50 mg/kd, 100 mg/kd, or 200 mg/kg) or vehicle were administered by oral gavage (P.O., 50-100 uL volume) for 5 days. The dosing solutions were prepared similar to the process in Example 4. Dosing was twice daily on days 1-4. On day 5 the mice received a single dose, prior to harvest. Three hours after the last dose, mice were sacrificed and their brains were harvested and processed for analysis. […] TERT expression was also found to be reduced in all three dose groups (FIG. 3).
In a second study with Compound 101 in the GBM mice model, the 200 mg/kg dosing group was changed to a 100 mg/kg once daily dosing (QD). The baseline BLI readings were taken two days prior to 1st treatment.

[4] = system: TERT; test: TERT expression in GBM39 orthotopic xenograft tumors; type: in vivo, mice; conditions: 50, 100 or 200 mg/kg BID, oral gavage, 5 days, FIG. 3
Experimental: as §2, §3

[5] = system: HepG2 subcutaneous tumor xenograft; test: HepG2 subcutaneous tumor xenograft, tumor volume; type: in vivo, mice; conditions: for Mean Tumor Volume: p.o, BID for 5 days
Experimental: The pharmacodynamic (PD) profiling of Compound 101 was determined in Athymic nude mice bearing subcutaneous tumor xenograft model.
(§4) HepG2 (Hepatocellular carcinoma cell line containing the C228T TERTp mutation) cells were implanted into the flanks of Athymic Nude-Foxn1nu mice. Once tumors reached 250-300 mm3 in size as measured by caliper, treatment of Compound 101 was initiated. Compound 101 was administered orally (P.O.) for 5 days BID at either 25 mg/kg, 50 mg/kg, or vehicle control (N=4 per group). Body weight and tumor size were measured on days 1, 3, and 5. Two hours after final dose administration, mice were sacrificed, and tumors extracted for RNA isolation and TERT mRNA expression analysis via RT-qPCR. Both TERT and GUSB were measured using SYBR green primers and relative TERT levels were analyzed using the delta delta CT method.

[6] = system: TERT; test: TERT mRNA expression (RT-qPCR) in HepG2 xenograft tumors; type: in vivo, mice; conditions: for TERT Expression (RT-qPCR) Mean Fold: p.o, BID for 5 days
Experimental: as §4

[7] = Body weight in HepG2 xenograft mice; type: in vivo; conditions: p.o, BID for 5 days
Experimental: as §4

[8] = system: GBM39 cells orthotopic xenograft; test: GBM orthotopic xenograft survival study; type: in vivo, mice; conditions: oral gavage, 14 days of dosing
Experimental: GBM39 cells, a human PDX model of GBM, were selected for this study. GBM39 cells were stably transduced (MOI=3) with Firefly Luciferase Lentifect Purified Lentiviral Particles (Genecopoiea, #LPP-FLUC-Lv105) and were verified to be expressing luciferase stably and at similar levels 48 h pre-xenograft. A total of 1-4×10E4 luciferase-expressing PDX cells in 4 uL volume were injected into the right frontal cortex of athymic nu/nu mice (6-7-wk.-old, female). Animals were randomized into treatment groups and dosing initiated once tumors reach an average BLI of 1×10^8.
(§5) For this study, treatment began on day 7 post tumor cell implant and ceased on day 20 for a total of 14 days of dosing. Compound 101 was formulated with Solutol, DMSO and water and administered by oral gavage twice daily (BID). The dosage groups were vehicle control, 50 mg/kg BID, 25 mg/kg BID, and 10 mg/kg BID. […] Tumor size was monitored following injection of luciferin (150 mg/kg i.p.) 1-2 times weekly by bioluminescence imaging (Xenogen IVIS Spectrum Imaging System). Animals were weighed three times per week, and daily after initial weight loss is observed.

[9] = Body weight in GBM orthotopic xenograft survival study; type: in vivo, mice; conditions: highest dosage group (50 mg/kg BID), first 3 dosing days
Experimental: as §5

[10] = oral, 25 mg/kg and 50 mg/kg BID, 5 days (both dose levels)

For `O=C(O)C[C@@H]1C[C@@H](c2ccc(C(F)(F)F)cc2)CN(Cc2ccc(C(F)(F)F)cc2)C1` [Compound 101, 2-((3S,5S)-1-(4-(trifluoromethyl)benzyl)-5-(4-(trifluoromethyl)phenyl)piperidin-3-yl)acetic acid], the IC50 [1] was less than 500 nM, the “wt TERT IC50 uM HEK293” value [2] was ““++”-IA” and the “tumor BLI change” value ([3]; 50, 100 or 200 mg/kg BID, oral gavage, FIG. 2) was “significant tumor reduction”. For the same molecule, the tumor size ([3]; second study, 100 mg/kg once daily dosing (QD)) was “sufficient to reduce tumor size”, the “tumor BLI change” value ([3]; second study: 50 mg/kg BID, 100 mg/kg BID or 100 mg/kg QD, FIG. 4) was “significant tumor reduction” and the “TERT expression in tumor” value [4] was “reduced”. The “Mean Tumor Volume” value ([5]; 25 mg/kg, Day 1) was 252.22 mm3, the “Mean Tumor Volume” value ([5]; 25 mg/kg, Day 3) was 230.02 mm3 and the “Mean Tumor Volume” value ([5]; 25 mg/kg, Day 5) was 197.97 mm3. For the same molecule, the “Mean Tumor Volume” value ([5]; 50 mg/kg, Day 1) was 251.37 mm3, the “Mean Tumor Volume” value ([5]; 50 mg/kg, Day 3) was 212.58 mm3 and the “Mean Tumor Volume” value ([5]; 50 mg/kg, Day 5) was 168.34 mm3. The tumor volume change [5, 10] was “tumor regression”, the “TERT Expression (RT-qPCR) Mean Fold” value ([6]; 25 mg/kg) was 0.21 Fold and the “TERT Expression (RT-qPCR) Mean Fold” value ([6]; 50 mg/kg) was 0.19 Fold. The “TERT mRNA in tumor” value [6, 10] was “TERT mRNA reduction”, the “% Mean body weight change” value ([7]; 25 mg/kg, DAY 1) was 0% and the “% Mean body weight change” value ([7]; 25 mg/kg, DAY 3) was −4.36%. The “% Mean body weight change” value ([7]; 25 mg/kg, DAY 5) was −3.65%, the “% Mean body weight change” value ([7]; 50 mg/kg, DAY 1) was 0% and the “% Mean body weight change” value ([7]; 50 mg/kg, DAY 3) was −11.09%. The “% Mean body weight change” value ([7]; 50 mg/kg, DAY 5) was −10.68%, the “Median Survival” value ([8]; 20 mg/kg/day, bid (n = 10)) was 50 and the “Median Survival” value ([8]; 50 mg/kg/day, bid (n = 10)) was 62.5. For the same molecule, the “Median Survival” value ([8]; 100 mg/kg/day, bid × 3 days, then 50 mg/kg/day, qd (n = 9)) was “Undefined” and the body weight [9] was “mice losing weight”.
